From publication PMC9186412, “Rational Framework for the Design of Trp- and Arg-Rich Peptide Antibiotics Against Multidrug-Resistant Bacteria” (Frontiers in Microbiology, 2022)
In brackets after ≈: the same amount, converted by molar mass. Read-outs that look alike come from different tables or passages of the source. Where a SMILES comes first, the peptide text is derived from it. Bridges are numbered along the chain shown (N, C = ends). [ ]: non-standard residue; d: D form. The star is where a group is joined. X1 = CC[C@H](C)CCCCC(=O)*; Dab = NCC[C@H](N)C(=O)O

What was measured:
[1] = tested on: CDC AR isolates; design: key: S (green), susceptible; I (blue), intermediate; R (red), resistant; settings: data provided by the CDC, ref CDC, cited from earlier work
Description: Supplement Table_3.XLSX, sheet "CDC AR isolates profiles" | column: G(-) strains

[2] = tested on: E. Faecium; assay: microbe, parasite or virus in culture; format: cell-based, Enterococcus Facium
Description: (§1) Bacterial clinical isolates, used for initial screening and in previous studies ([Deslouches et al., 2013]; [Lin et al., 2018]), were anonymously provided by the clinical microbiology laboratory of the University of Pittsburgh medical Center. The panel used for secondary screening was from [CDC (2013)] (Supplementary Table 3), with resistance profiles data. Bacteria are stored in lock-secured –80°C freezer and typically retrieved by obtaining single colonies on agar plates prior for subsequent liquid broth cultures. Suspensions of test bacteria were prepared from log phase of growth by diluting overnight cultures at 1:100 with fresh cation-adjusted MHB (MHB2, Millipore Sigma, United States) and incubating for additional 3–4 h. Bacteria were spun at 3,000 × g for 10 min and the pellet resuspended in test condition media (Millipore Sigma, United States) to determine bacterial turbidity using a Den-1B densitometer (Grant Instruments, United States) at 0.5 McFarland (unit of bacterial density) corresponding to […].
(§2) To examine antibacterial activity, we used minor modifications of a standard growth inhibition assay endorsed by the Clinical and Laboratory Standards Institute (CLSI), as previously described ([Deslouches et al., 2013]). Bacteria were incubated with each of the indicated peptides in MHB2. The bacterial cells were kept in an incubator for 18 h at 37°C, which is linked to a robotic system that feeds a plate reader every hour with one of 8 × 96-well plates. This set-up allows the collection of growth kinetic data at A 570 (absorbance at 570 nm) to examine growth inhibition in real time (BioTek Instruments, United States). […] The assays are typically repeated a second time. If the MIC is different, a third experimental trial is performed to confirm the MIC. To assess bactericidal properties of the peptide, the assay was modified by using 15% fetal bovine serum (FBS, for a more physiologically relevant test condition) mixed with 25% MHB2 and 60% PBS. Bacterial cells (colony forming unit/mL or CFU/mL) were enumerated after incubating treated bacteria for 3 h and plating serially diluted samples on broth agar medium at 37°C overnight. Minimum bactericidal concentration (MBC) was determined as the peptide concentration at which complete bacterial killing was observed. […] Data were analyzed using GraphPad Prism software.

[3] = tested on: P. aeruginosa; assay: microbe, parasite or virus in culture; format: cell-based, Pseudomonas aeruginosa
Description: as §1, §2

[4] = tested on: K. pneumoniae; assay: microbe, parasite or virus in culture; format: cell-based, Klebsiella pneumoniae
Description: as §1, §2

[5] = tested on: Enterobacter spp; assay: microbe, parasite or virus in culture; format: cell-based, Enterobacter spp (aerogenes, cloacae)
Description: as §1, §2

[6] = tested on: E. coli; assay: microbe, parasite or virus in culture; format: cell-based, Escherichia coli
Description: as §1, §2

[7] = tested on: A. baumannii; assay: microbe, parasite or virus in culture; format: cell-based, Acinetobacter baumannii
Description: as §1, §2

[8] = tested on: S. aureus; assay: microbe, parasite or virus in culture; format: cell-based
Description: as §1, §2

CC[C@H](C)CCCCC(=O)N[C@@H](CCN)C(=O)N[C@H](C(=O)N[C@@H](CCN)C(=O)N[C@H]1CCNC(=O)[C@H]([C@@H](C)O)NC(=O)[C@H](CCN)NC(=O)[C@H](CCN)NC(=O)[C@H](CC(C)C)NC(=O)[C@@H](CC(C)C)NC(=O)[C@H](CCN)NC1=O)[C@@H](C)O [Colistin, reference compound] (X1-[Dab]T[Dab][Dab][Dab][dL]L[Dab][Dab]T; lactam 4-C (inferred); N-terminus assumed)
Antibiotic susceptibility profile ([1]; Acinetobacter baumannii AB273, CDC AR isolate): S
Antibiotic susceptibility profile ([1]; Acinetobacter baumannii AB274, CDC AR isolate): S
Antibiotic susceptibility profile ([1]; Acinetobacter baumannii AB275, CDC AR isolate): S
Antibiotic susceptibility profile ([1]; Acinetobacter baumannii AB276, CDC AR isolate): S
Antibiotic susceptibility profile ([1]; Enterobacter cloacae E62, CDC AR isolate): S
Antibiotic susceptibility profile ([1]; Enterobacter cloacae E546, CDC AR isolate): R
Antibiotic susceptibility profile ([1]; Klebsiella pneumoniae KP542, CDC AR isolate): I
Antibiotic susceptibility profile ([1]; Klebsiella pneumoniae KP548, CDC AR isolate): R
Antibiotic susceptibility profile ([1]; Klebsiella pneumoniae KP550, CDC AR isolate): R
Antibiotic susceptibility profile ([1]; Klebsiella pneumoniae KP552, CDC AR isolate): R
Antibiotic susceptibility profile ([1]; Pseudomonas aeruginosa PA229, CDC AR isolate): S
Antibiotic susceptibility profile ([1]; Pseudomonas aeruginosa PA230, CDC AR isolate): S
Antibiotic susceptibility profile ([1]; Pseudomonas aeruginosa PA231, CDC AR isolate): S
Antibiotic susceptibility profile ([1]; Pseudomonas aeruginosa PA232, CDC AR isolate): S
Antibiotic susceptibility profile ([1]; Pseudomonas aeruginosa PA239, CDC AR isolate): R
MIC ([2]; strain EF500, CDC clinical strain, confirmed by a second or third experimental trial): >16 µM
MIC ([2]; strain EF671, CDC clinical strain, confirmed by a second or third experimental trial): >16 µM
MIC ([2]; strain EF672, CDC clinical strain, confirmed by a second or third experimental trial): >16 µM
MIC ([2]; strain EF673, CDC clinical strain, confirmed by a second or third experimental trial): >16 µM
MIC ([2]; strain EF23614, UPMC, MHB2, 18 h, 37°C): >16 µM
MIC ([2]; strain EF26215, UPMC, MHB2, 18 h, 37°C): >16 µM
MIC ([2]; strain EF26692, UPMC, MHB2, 18 h, 37°C): >16 µM
MIC ([3]; strain PA01, MHB2, 18 h, 37°C): 0.5 µM (≈ 0.585 µg/mL)
MIC ([3]; strain PA14, MHB2, 18 h, 37°C): 0.25 µM (≈ 0.292 µg/mL)
MIC ([3]; strain PA97-5, UPMC, MHB2, 18 h, 37°C): 0.25 µM (≈ 0.292 µg/mL)
MIC ([3]; strain PA129-5, UPMC, MHB2, 18 h, 37°C): 0.5 µM (≈ 0.585 µg/mL)
MIC ([3]; strain PA216, CDC clinical strain, confirmed by a second or third experimental trial): 0.5 µM (≈ 0.585 µg/mL)
MIC ([3]; strain PA229, CDC clinical strain, confirmed by a second or third experimental trial): >16 µM
MIC ([3]; strain PA230, CDC clinical strain, confirmed by a second or third experimental trial): 0.5 µM (≈ 0.585 µg/mL)
MIC ([3]; strain PA231, CDC clinical strain, confirmed by a second or third experimental trial): 1 µM (≈ 1.17 µg/mL)
MIC ([4]; colistin-resistant CDC isolate KP46, MHB2): 4 µM (≈ 4.68 µg/mL)
MIC ([4]; colistin-resistant CDC isolate KP87, MHB2): >16 µM
MIC ([4]; colistin-resistant CDC isolate KP125, MHB2): 8 µM (≈ 9.36 µg/mL)
MIC ([4]; colistin-resistant CDC isolate KP507, MHB2): 16 µM (≈ 18.7 µg/mL)
MIC ([4]; colistin-resistant CDC isolate KP1010, MHB2): 16 µM (≈ 18.7 µg/mL)
MIC ([4]; colistin-resistant CDC isolate KP1041, MHB2): >16 µM
MIC ([4]; colistin-resistant CDC isolate KP1045, MHB2): >16 µM
MIC ([4]; strain KP542, CDC clinical strain, confirmed by a second or third experimental trial): >16 µM
MIC ([4]; strain KP548, CDC clinical strain, confirmed by a second or third experimental trial): 0.25 µM (≈ 0.292 µg/mL)
MIC ([4]; strain KP550, CDC clinical strain, confirmed by a second or third experimental trial): 0.25 µM (≈ 0.292 µg/mL)
MIC ([4]; strain KP552, CDC clinical strain, confirmed by a second or third experimental trial): 0.25 µM (≈ 0.292 µg/mL)
MIC ([4]; strain KPA5 (colistin-resistant), UPMC, MHB2, 18 h, 37°C): >16 µM
MIC ([4]; strain KPB3, UPMC, MHB2, 18 h, 37°C): 0.25 µM (≈ 0.292 µg/mL)
MIC ([4]; strain KPC3, UPMC, MHB2, 18 h, 37°C): 0.25 µM (≈ 0.292 µg/mL)
MIC ([5]; strain EA62 (aerogenes), CDC clinical strain, confirmed by a second or third experimental trial): 2 µM (≈ 2.34 µg/mL)
MIC ([5]; strain EA518 (aerogenes), UPMC, MHB2, 18 h, 37°C): 0.25 µM (≈ 0.292 µg/mL)
MIC ([5]; strain EA547 (aerogenes), CDC clinical strain, confirmed by a second or third experimental trial): 0.25 µM (≈ 0.292 µg/mL)
MIC ([5]; strain EA596 (aerogenes), UPMC, MHB2, 18 h, 37°C): 0.25 µM (≈ 0.292 µg/mL)
MIC ([5]; strain EC470 (cloacae), UPMC, MHB2, 18 h, 37°C): 0.25 µM (≈ 0.292 µg/mL)
MIC ([5]; strain EC544 (cloacae), CDC clinical strain, confirmed by a second or third experimental trial): 4 µM (≈ 4.68 µg/mL)
MIC ([5]; strain EC545 (cloacae), CDC clinical strain, confirmed by a second or third experimental trial): 2 µM (≈ 2.34 µg/mL)
MIC ([5]; strain EC560 (cloacae), UPMC, MHB2, 18 h, 37°C): 0.25 µM (≈ 0.292 µg/mL)
MIC ([6]; strain Eco541, CDC clinical strain, confirmed by a second or third experimental trial): 1 µM (≈ 1.17 µg/mL)
MIC ([6]; strain Eco543, CDC clinical strain, confirmed by a second or third experimental trial): 8 µM (≈ 9.36 µg/mL)
MIC ([6]; strain Eco546, CDC clinical strain, confirmed by a second or third experimental trial): 0.25 µM (≈ 0.292 µg/mL)
MIC ([6]; strain Eco549, CDC clinical strain, confirmed by a second or third experimental trial): 1 µM (≈ 1.17 µg/mL)
MIC ([6]; strain Eco25922, MHB2, 18 h, 37°C): 0.5 µM (≈ 0.585 µg/mL)
MIC ([6]; strain YDC107, UPMC, MHB2, 18 h, 37°C): 0.5 µM (≈ 0.585 µg/mL)
MIC ([6]; strain YDC337, UPMC, MHB2, 18 h, 37°C): 0.25 µM (≈ 0.292 µg/mL)
MIC ([6]; strain YDC748, UPMC, MHB2, 18 h, 37°C): 0.25 µM (≈ 0.292 µg/mL)
MIC ([7]; strain AB273, CDC clinical strain, confirmed by a second or third experimental trial): 0.5 µM (≈ 0.585 µg/mL)
MIC ([7]; strain AB274, CDC clinical strain, confirmed by a second or third experimental trial): 0.25 µM (≈ 0.292 µg/mL)
MIC ([7]; strain AB275 (first line, r8), CDC clinical strain, confirmed by a second or third experimental trial): 0.25 µM (≈ 0.292 µg/mL)
MIC ([7]; strain AB275 (second line, r9), CDC clinical strain, confirmed by a second or third experimental trial): 0.5 µM (≈ 0.585 µg/mL)
MIC ([7]; strain AB-A2, UPMC clinical strain, MHB2, 18 h, 37°C, A570, confirmed by 2nd or 3rd trial): 0.5 µM (≈ 0.585 µg/mL)
MIC ([7]; strain AB-A3, UPMC, MHB2, 18 h, 37°C): 0.25 µM (≈ 0.292 µg/mL)
MIC ([7]; strain AB-F8, UPMC, MHB2, 18 h, 37°C): 0.5 µM (≈ 0.585 µg/mL)
MIC ([7]; strain AB-F9, UPMC, MHB2, 18 h, 37°C): 0.25 µM (≈ 0.292 µg/mL)
MIC ([8]; strain SA461, CDC clinical strain, confirmed by a second or third experimental trial): >16 µM
MIC ([8]; strain SA462, CDC clinical strain, confirmed by a second or third experimental trial): >16 µM
MIC ([8]; strain SA463, CDC clinical strain, confirmed by a second or third experimental trial): >16 µM
MIC ([8]; strain SA561, CDC clinical strain, confirmed by a second or third experimental trial): >16 µM
MIC ([8]; strain SA12212, UPMC, MHB2, 18 h, 37°C): >16 µM
MIC ([8]; strain SA18710, UPMC, MHB2, 18 h, 37°C): >16 µM
MIC ([8]; strain SA49775, MHB2, 18 h, 37°C): >16 µM
MIC ([8]; strain SA-US300, MHB2, 18 h, 37°C): >16 µM
